Results reported in paper PMC10251674, “Synthesis of novel mono- and bis-pyrazolylthiazole derivatives as anti-liver cancer agents through EGFR/HER2 target inhibition” (BMC Chemistry, 2023).
Where two headings read alike, the source gives them in different places.

Key:
caspase-9 = assay: RT-PCR gene expression of caspase-9; assay type: cell-based; settings: HepG2, treated at IC50, 48 h, normalised to β-actin, control = 1
Description: (§1) Genes of P53, Bax, and Caspases-3,8,9 were screened as proapoptotic genes, while Bcl-2 was screened as antiapoptotic, therefore, we measured their gene expression to investigate the apoptotic process. […] After treatment, RT-PCR reaction was carried out following routine work. The Ct values were then used to determine the fold change in gene expression between samples after normalization to the β-actin reference gene.

caspase-8 = assay: RT-PCR gene expression of caspase-8; assay type: cell-based; settings: HepG2, treated at IC50, 48 h, normalised to β-actin, control = 1
Description: as §1

HepG2 liver cancer cells = assay: MTT cytotoxicity assay against HepG2 cells; assay type: cell-based; settings: for IC50 / viability at 100 µM: Homo sapiens; for viability at 100 µM: read-out: cell viability at the highest concentration
Description: (§2) HepG2 liver cancer cells and THLE2 normal liver cells were bought from the National Research Institute in Egypt and cultured in “RPMI-1640” media containing L-Glutamine (Lonza Verviers SPRL, Belgium, cat#12-604F). Fetal bovine serum (Sigma-Aldrich, MO, USA) and penicillin–streptomycin at a concentration of 10% and 1%, respectively, were added to both cell lines (Lonza, Belgium). All cells were incubated following routine tissue culture work. Cells were treated with the compounds at (0.01, 0.1, 1, 10, and 100 µM) concentrations. Cell viability was assessed after 48 h using MTT solution (Promega, USA). Finally, Absorbance was subsequently measured (at 570 nm) using ELISA microplate reader (BIO-RAD, model iMark, Japan). The percentage of cell viability was calculated, and IC50 values were recorded using the GraphPad prism 7, as previously reported in the literature.

EGFR kinase = target: T1, EGFR kinase (Homo sapiens, UniProt P00533); assay: EGFR kinase inhibitory assay (BPS Bioscience kit); assay type: biochemical; settings: average of three replicates, five concentrations
T1 construct: purchased BPS Bioscience 40321
Description: (§3) The autophosphorylation percentage inhibition of compounds was calculated by: 100-[Acontrol/Atreated-Control)] .

HepG2 cells [1] = assay: Cell cycle analysis by DNA flow cytometry; assay type: cell-based; settings: HepG2, treated at IC50, 48 h
HepG2 cells [2] = assay: Annexin V/PI staining, flow cytometry; assay type: cell-based; settings: HepG2, treated at IC50, 48 h
Description: Overnight, 6-well culture plates were stocked with HepG2 cells (3–5 × 10^5 cells/well). […] After that, the cells and the medium supernatants were separated and washed with ice-cold PBS. The next step was suspending the cells in 100 µL of annexin binding buffer solution "25 mM CaCl2, 1.4 M NaCl, and 0.1 M Hepes/NaOH, pH 7.4″ and incubation with “Annexin V-FITC solution (1:100) and propidium iodide (PI)” at a concentration equals 10 µg/mL in the dark for 30 min. After the cells were stained, they were gathered by Cytoflex FACS equipment. We used cytExpert to examine the data.

HER2 kinase = target: T2, HER2 kinase (Homo sapiens, UniProt P04626); assay: HER2 kinase inhibitory assay (BPS Bioscience kit); assay type: biochemical; settings: average of three replicates, five concentrations
T2 construct: purchased BPS Bioscience 40721
Description: as §3

Bax = assay: RT-PCR gene expression of Bax; assay type: cell-based; settings: HepG2, treated at IC50, 48 h, normalised to β-actin, control = 1
Description: as §1

THLE2 normal liver cells = assay: MTT cytotoxicity assay against THLE2 cells; assay type: cell-based; settings: for IC50: Homo sapiens, THLE-2, MTT assay, 48 h, n = 3, read-out: IC50 ± SD THLE2
Description: as §2

Bcl-2 = assay: RT-PCR gene expression of Bcl-2; assay type: cell-based; settings: HepG2, treated at IC50, 48 h, normalised to β-actin, control = 1
Description: as §1

P53 = assay: RT-PCR gene expression of P53; assay type: cell-based; settings: HepG2, treated at IC50, 48 h, normalised to β-actin, control = 1
Description: as §1

caspase-3 = assay: RT-PCR gene expression of caspase-3; assay type: cell-based; settings: HepG2, treated at IC50, 48 h, normalised to β-actin, control = 1
Description: as §1

[3] = HepG2, dose-response curve fit in Fig. 5
[4] = HepG2, dose-response curve fit in Fig. 5, read-out: IC50 (unit inferred)
[5] = HepG2 cells, MTT assay, 48 h, n = 3, read-out: IC50 ± SD HepG2

T1 sequence (P00533 25-1210): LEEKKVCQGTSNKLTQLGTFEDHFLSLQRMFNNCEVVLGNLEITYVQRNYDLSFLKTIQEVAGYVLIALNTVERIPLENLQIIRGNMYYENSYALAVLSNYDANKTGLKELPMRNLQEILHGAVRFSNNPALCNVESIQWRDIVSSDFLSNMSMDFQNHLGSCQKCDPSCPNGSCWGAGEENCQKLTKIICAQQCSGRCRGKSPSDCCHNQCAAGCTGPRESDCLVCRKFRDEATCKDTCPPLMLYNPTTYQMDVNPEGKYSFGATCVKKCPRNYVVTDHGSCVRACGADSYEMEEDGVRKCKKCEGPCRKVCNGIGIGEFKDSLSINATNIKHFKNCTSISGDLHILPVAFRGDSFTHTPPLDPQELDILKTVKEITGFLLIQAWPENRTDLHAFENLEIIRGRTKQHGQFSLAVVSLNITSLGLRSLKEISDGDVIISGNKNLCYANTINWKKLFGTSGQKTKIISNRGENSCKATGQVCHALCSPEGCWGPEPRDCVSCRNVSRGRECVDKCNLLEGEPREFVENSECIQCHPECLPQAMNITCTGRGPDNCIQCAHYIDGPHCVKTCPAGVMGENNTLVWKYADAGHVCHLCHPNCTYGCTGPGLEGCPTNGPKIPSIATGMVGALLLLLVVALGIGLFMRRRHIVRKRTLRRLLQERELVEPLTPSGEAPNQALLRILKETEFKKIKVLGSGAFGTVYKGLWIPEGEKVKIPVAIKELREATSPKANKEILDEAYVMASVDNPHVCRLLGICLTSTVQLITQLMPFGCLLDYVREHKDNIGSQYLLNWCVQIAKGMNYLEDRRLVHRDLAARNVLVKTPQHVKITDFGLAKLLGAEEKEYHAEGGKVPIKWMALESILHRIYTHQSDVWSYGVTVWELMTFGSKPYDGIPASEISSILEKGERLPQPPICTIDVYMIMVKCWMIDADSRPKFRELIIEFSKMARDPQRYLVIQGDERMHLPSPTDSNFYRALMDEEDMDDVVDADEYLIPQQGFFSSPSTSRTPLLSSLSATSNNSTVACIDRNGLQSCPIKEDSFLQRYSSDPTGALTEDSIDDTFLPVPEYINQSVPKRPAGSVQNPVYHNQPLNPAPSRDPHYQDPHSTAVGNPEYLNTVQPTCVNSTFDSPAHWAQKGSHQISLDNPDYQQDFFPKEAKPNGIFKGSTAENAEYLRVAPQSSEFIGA
T2 sequence (P04626 23-1255): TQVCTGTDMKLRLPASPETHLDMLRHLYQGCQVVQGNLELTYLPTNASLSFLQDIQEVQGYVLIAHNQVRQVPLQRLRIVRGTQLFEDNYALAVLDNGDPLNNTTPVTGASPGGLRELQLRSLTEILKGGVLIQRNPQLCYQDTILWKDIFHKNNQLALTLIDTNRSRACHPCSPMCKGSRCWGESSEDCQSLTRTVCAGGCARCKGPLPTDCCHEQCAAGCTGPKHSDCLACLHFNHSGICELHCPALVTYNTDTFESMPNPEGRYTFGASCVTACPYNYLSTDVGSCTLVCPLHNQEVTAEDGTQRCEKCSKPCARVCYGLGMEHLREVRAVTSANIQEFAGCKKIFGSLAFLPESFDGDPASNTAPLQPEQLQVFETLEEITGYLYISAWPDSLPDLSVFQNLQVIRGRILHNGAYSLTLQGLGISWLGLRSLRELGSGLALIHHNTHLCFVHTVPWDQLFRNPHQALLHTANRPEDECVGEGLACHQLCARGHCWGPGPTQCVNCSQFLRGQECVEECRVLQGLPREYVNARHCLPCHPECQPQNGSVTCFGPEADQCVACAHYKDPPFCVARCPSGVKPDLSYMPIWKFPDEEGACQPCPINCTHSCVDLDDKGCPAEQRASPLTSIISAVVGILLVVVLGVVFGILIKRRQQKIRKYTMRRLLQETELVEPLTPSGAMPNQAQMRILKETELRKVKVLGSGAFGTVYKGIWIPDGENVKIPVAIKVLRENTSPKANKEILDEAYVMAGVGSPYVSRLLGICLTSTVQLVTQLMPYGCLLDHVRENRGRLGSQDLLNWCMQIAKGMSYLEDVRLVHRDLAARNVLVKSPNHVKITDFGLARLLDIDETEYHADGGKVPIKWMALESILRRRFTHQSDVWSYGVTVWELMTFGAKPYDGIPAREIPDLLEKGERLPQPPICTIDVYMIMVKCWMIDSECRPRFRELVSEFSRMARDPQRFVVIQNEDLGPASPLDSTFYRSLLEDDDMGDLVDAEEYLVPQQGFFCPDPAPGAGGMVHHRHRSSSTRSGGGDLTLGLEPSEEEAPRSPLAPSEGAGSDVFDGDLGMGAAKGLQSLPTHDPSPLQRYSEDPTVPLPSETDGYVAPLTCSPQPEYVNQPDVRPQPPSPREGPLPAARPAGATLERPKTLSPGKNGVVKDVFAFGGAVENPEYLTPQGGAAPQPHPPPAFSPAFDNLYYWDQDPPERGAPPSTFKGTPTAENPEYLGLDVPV

For O=C(c1ccc2ccccc2c1)c1cn(-c2ccccc2)nc1-c1csc(N/N=C/c2ccc(OCCCCOc3ccc(/C=N/Nc4nc(-c5nn(-c6ccccc6)cc5C(=O)c5ccc6ccccc6c5)cs4)cc3)cc2)n1 [Compound 18c, 1,4-Bis(4-((2-(4-((2-naphthoyl)-1-phenyl-1H-pyrazol-3-yl)thiazol-2-yl)hydrazono)methyl)-phenoxy)butane], the “caspase-9 gene expression fold change” value (caspase-9) was 7.6 fold, the “caspase-8 gene expression fold change” value (caspase-8) was 2.3 fold and the LogIC50 (HepG2 liver cancer cells; [3]) was -0.01146. The “enhancement in anti-cancer potency on doubling the pharmacophoric scaffold” value (HepG2 liver cancer cells; HepG2 IC50 of 18c vs. 8c) was “about eightfold”, the IC50 (HepG2 liver cancer cells; [4]) was 0.974 µM and the viability at 100 µM (HepG2 liver cancer cells; HepG2 cells) was 5%. For the same molecule, the IC50 (HepG2 liver cancer cells; [5]) was 0.97 ± 0.09 µM, the IC50 (EGFR kinase) was 0.00498 µM and the “cell cycle phase at which proliferation is arrested” value (HepG2 cells [1]) was “S-phase”. The “cell population at S-phase” value (HepG2 cells [1]; control 37.8%) was 50.5%, the “increase of death rate (apoptotic cell death)” value (HepG2 cells [2]; vs. untreated control) was 63.6 fold and the late apoptosis (HepG2 cells [2]; AV+/PI+) was 26.07%. It also gave an early apoptosis (HepG2 cells [2]; AV+/PI-) of 15.28%, a total apoptosis (HepG2 cells [2]; untreated control 0.65%) of 41.35% and an IC50 (HER2 kinase) of 0.00985 µM. The “Bax gene expression fold change” value (Bax) was 8.9 fold, the “cytotoxicity against THLE2 cells (in words)” value (shortened to “cytotoxicity”) (THLE2 normal liver cells) was “safe (non-cytotoxic)” and the IC50 (THLE2 normal liver cells) was no less than 50 µM. For the same molecule, the “Bcl-2 gene expression fold change” value (Bcl-2) was 0.34 fold, the “P53 gene expression fold change” value (P53) was 8.6 fold and the “caspase-3 gene expression fold change” value (caspase-3) was 9 fold.

In the case of CS(=O)(=O)CCNCc1ccc(-c2ccc3ncnc(Nc4ccc(OCc5cccc(F)c5)c(Cl)c4)c3c2)o1 [Lapatinib, reference compound], the IC50 (HepG2 liver cancer cells; [5]) is reported as 7.45 ± 0.32 µM and the IC50 (THLE2 normal liver cells) is reported as no less than 50 µM.

Work on CC(=NNc1nc(-c2nn(-c3ccccc3)cc2C(=O)c2ccc3ccccc3c2)cs1)c1cc2ccccc2o1 [Compound 12, 2-(2-(1-(Benzofuran-2-yl)ethylidene)hydrazinyl)-4-(4-(2-naphthoyl)-1-phenylpyrazol-3-yl)thiazole] yielded an IC50 (HepG2 liver cancer cells; [5]) of 5.48 ± 0.66 µM, a melting point of 164 to 166 °C and an IC50 (THLE2 normal liver cells) of no less than 50 µM.

O=C(c1ccc2ccccc2c1)c1cn(-c2ccccc2)nc1-c1csc(N/N=C/c2ccc(OCCCOc3ccc(/C=N/Nc4nc(-c5nn(-c6ccccc6)cc5C(=O)c5ccc6ccccc6c5)cs4)cc3)cc2)n1 [Compound 18b, 1,3-Bis(4-((2-(4-((2-naphthoyl)-1-phenyl-1H-pyrazol-3-yl)thiazol-2-yl)hydrazono)methyl)-phenoxy)propane] gave a LogIC50 (HepG2 liver cancer cells; [3]) of 0.5536, an IC50 (HepG2 liver cancer cells; [4]) of 3.58 µM and a viability at 100 µM (HepG2 liver cancer cells; HepG2 cells) of 9%. For the same molecule, the IC50 (HepG2 liver cancer cells; [5]) was 3.57 ± 0.67 µM, the melting point was 200 to 202 °C and the IC50 (EGFR kinase) was 0.00704 µM. The IC50 (HER2 kinase) was 0.0163 µM, the “cytotoxicity” value (THLE2 normal liver cells) was “safe (non-cytotoxic)” and the IC50 (THLE2 normal liver cells) was no less than 50 µM.

COc1ccc(C=NNc2nc(-c3nn(-c4ccccc4)cc3C(=O)c3ccc4ccccc4c3)cs2)cc1 [Compound 8c, 2-(4-Methoxybenzylidenehydrazinyl)-4-(4-(2-naphthoyl)-1-phenyl-pyrazol-3-yl)thiazole] showed an IC50 (HepG2 liver cancer cells; [5]) of 7.39 ± 0.29 µM and an IC50 (THLE2 normal liver cells) of no less than 50 µM.

Molecule O=C(c1ccc2ccccc2c1)c1cn(-c2ccccc2)nc1-c1csc(N/N=C\c2ccccc2OCCCOc2ccccc2/C=N\Nc2nc(-c3nn(-c4ccccc4)cc3C(=O)c3ccc4ccccc4c3)cs2)n1 [Compound 21b, 1,3-Bis(2-((2-(4-((2-naphthoyl)-1-phenyl-1H-pyrazol-3-yl)thiazol-2-yl)hydrazono)methyl)-phenoxy)propane] has an IC50 (HepG2 liver cancer cells; [5]) of 9.36 ± 0.47 µM, a melting point of 209 to 211 °C and an IC50 (THLE2 normal liver cells) of 49.4 ± 2.1 µM.

O=C(c1ccc2ccccc2c1)c1cn(-c2ccccc2)nc1C(=O)CBr [Compound 6, 3-Bromoacetyl-4-(2-naphthoyl)-1-phenyl-1H-pyrazole] showed an IC50 (HepG2 liver cancer cells; [5]) of 16.3 ± 0.29 µM and an IC50 (THLE2 normal liver cells) of 34.5 ± 1.26 µM.

Molecule O=C(c1ccc2ccccc2c1)c1cn(-c2ccccc2)nc1-c1csc(NN=Cc2ccccc2)n1 [Compound 8a, 2-(Benzylidenehydrazinyl)-4-(4-(2-naphthoyl)-1-phenyl-pyrazol-3-yl)thiazole] has an IC50 (HepG2 liver cancer cells; [5]) of 8.64 ± 0.29 µM, a melting point of 138 to 140 °C and an IC50 (THLE2 normal liver cells) of 46.2 ± 2.01 µM.

In the case of O=C(c1ccc2ccccc2c1)c1cn(-c2ccccc2)nc1-c1csc(N/N=C\c2ccccc2OCCCCOc2ccccc2/C=N\Nc2nc(-c3nn(-c4ccccc4)cc3C(=O)c3ccc4ccccc4c3)cs2)n1 [Compound 21c, 1,4-Bis(2-((2-(4-((2-naphthoyl)-1-phenyl-1H-pyrazol-3-yl)thiazol-2-yl)hydrazono)methyl)-phenoxy)butane], the IC50 (HepG2 liver cancer cells; [5]) is reported as 4.12 ± 0.19 µM, the melting point is reported as 230 to 232 °C and the IC50 (THLE2 normal liver cells) is reported as 45.6 ± 1.87 µM.

For Cc1ccc(C=NNc2nc(-c3nn(-c4ccccc4)cc3C(=O)c3ccc4ccccc4c3)cs2)cc1 [Compound 8b, 2-(4-Methylbenzylidenehydrazinyl)-4-(4-(2-naphthoyl)-1-phenylpyrazol-3-yl)thiazole], the IC50 (HepG2 liver cancer cells; [5]) was 8.16 ± 0.34 µM and the IC50 (THLE2 normal liver cells) was 41.6 ± 1.86 µM.

CC(=NNc1nc(-c2nn(-c3ccccc3)cc2C(=O)c2ccc3ccccc3c2)cs1)c1cc2ccccc2oc1=O [Compound 14, 2-(2-(1-(Coumarin-3-yl)ethylidene)hydrazinyl)-4-(4-(2-naphthoyl)-1-phenylpyrazol-3-yl)-thiazole] gave an IC50 (HepG2 liver cancer cells; [5]) of 4.36 ± 0.38 µM, a melting point of 239 to 241 °C and an IC50 (THLE2 normal liver cells) of 39.5 ± 1.74 µM.

In the case of O=C(c1ccc2ccccc2c1)c1cn(-c2ccccc2)nc1-c1csc(NN=Cc2ccc([N+](=O)[O-])cc2)n1 [Compound 8d, 2-(4-Nitrobenzylidenehydrazinyl)-4-(4-(2-naphthoyl)-1-phenyl-pyrazol-3-yl)thiazole], the IC50 (HepG2 liver cancer cells; [5]) is reported as 11.3 ± 0.34 µM, the melting point is reported as 231 to 233 °C and the IC50 (THLE2 normal liver cells) is reported as no less than 50 µM.

In the case of O=C(c1ccc2ccccc2c1)c1cn(-c2ccccc2)nc1-c1csc(N/N=C\c2ccccc2OCCOc2ccccc2/C=N\Nc2nc(-c3nn(-c4ccccc4)cc3C(=O)c3ccc4ccccc4c3)cs2)n1 [Compound 21a, 1,2-Bis(2-((2-(4-((2-naphthoyl)-1-phenyl-1H-pyrazol-3-yl)thiazol-2-yl)hydrazono)methyl)-phenoxy)ethane], the LogIC50 (HepG2 liver cancer cells; [3]) is reported as 0.514, the IC50 (HepG2 liver cancer cells; [4]) is reported as 3.27 µM and the viability at 100 µM (HepG2 liver cancer cells; HepG2 cells) is reported as 13%. It also gave an IC50 (HepG2 liver cancer cells; [5]) of 3.26 ± 0.14 µM, a melting point of 166 to 168 °C and an IC50 (EGFR kinase) of 0.0058 µM. For the same molecule, the IC50 (HER2 kinase) was 0.0142 µM, the “cytotoxicity” value (THLE2 normal liver cells) was “safe (non-cytotoxic)” and the IC50 (THLE2 normal liver cells) was no less than 50 µM.

CC(=NNc1nc(-c2nn(-c3ccccc3)cc2C(=O)c2ccc3ccccc3c2)cs1)c1nc2ccccc2s1 [Compound 13, 2-(2-(1-(Benzothiazol-2-yl)ethylidene)hydrazinyl)-4-(4-(2-naphthoyl)-1-phenylpyrazol-3-yl)-thiazole] gave an IC50 (HepG2 liver cancer cells; [5]) of 5.16 ± 0.29 µM, a melting point of 143 to 145 °C and an IC50 (THLE2 normal liver cells) of no less than 50 µM.

With O=C(c1ccc2ccccc2c1)c1cn(-c2ccccc2)nc1-c1csc(N/N=C/c2ccc(OCCOc3ccc(/C=N/Nc4nc(-c5nn(-c6ccccc6)cc5C(=O)c5ccc6ccccc6c5)cs4)cc3)cc2)n1 [Compound 18a, 1,2-Bis(4-((2-(4-((2-naphthoyl)-1-phenyl-1H-pyrazol-3-yl)thiazol-2-yl)hydrazono)methyl)-phenoxy)ethane] the IC50 (HepG2 liver cancer cells; [5]) was 8.34 ± 0.48 µM, the melting point was 187 to 189 °C and the IC50 (THLE2 normal liver cells) was 39.8 ± 1.59 µM.
